Measurements published in paper PMC12123458, “Unraveling Small Molecule-Mediated Sirtuin 3 Activation at a Distinct Binding Site for Cardioprotective Therapies” (ACS Central Science, 2025).

Experiments:
hSirt3 = biological target: T1, hSirt3 (Homo sapiens, UniProt Q9NTG7); assay: Mass spectrometry-based deacetylation assay, substrate […]-Ac; format: biochemical; settings: substrate GELLEAIK-Ac; SKLB-11A 100 μM
T1 sequence (Q9NTG7 1-399): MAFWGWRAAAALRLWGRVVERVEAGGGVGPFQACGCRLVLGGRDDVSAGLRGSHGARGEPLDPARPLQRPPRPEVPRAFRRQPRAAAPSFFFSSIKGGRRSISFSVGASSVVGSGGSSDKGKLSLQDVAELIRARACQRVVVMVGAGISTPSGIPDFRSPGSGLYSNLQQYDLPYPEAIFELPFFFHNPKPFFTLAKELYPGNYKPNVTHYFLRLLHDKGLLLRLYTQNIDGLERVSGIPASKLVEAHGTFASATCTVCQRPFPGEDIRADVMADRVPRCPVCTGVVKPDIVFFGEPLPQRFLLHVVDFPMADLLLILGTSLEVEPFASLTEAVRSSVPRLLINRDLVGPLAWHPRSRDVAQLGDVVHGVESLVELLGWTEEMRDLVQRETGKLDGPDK

[1] = tested on: acetylated MnSOD (K68 and K122) in H9c2 cells; assay: Western blot of MnSOD, SIRT3 and acetylated MnSOD in H9c2 cells; format: cell-based; settings: 24 h
Procedure: Proteomic analysis was conducted on H9c2 cells and murine cardiac tissues. Protein lysates were resolved via SDS-PAGE and transferred onto PVDF membranes. […] After washing, membranes were probed with secondary antibodies for 1 h at room temperature. Detection was facilitated by an ECL kit, with densitometry performed using ImageJ software to quantify protein expression, normalized against controls. The antibodies employed included: anti-SIRT3 (2627, Cell Signaling Technology), anti-acetylated lysine (9441, CST), anti-Ac.K68-MnSOD2 (ab137037, Abcam), anti-Ac.K122-MnSOD2 (ab214675, Abcam), anti-MnSOD2 (13141, CST), anti-LC3B (3868, CST), anti-p62 (8025, CST), anti-PINK1 (6946, CST), anti-Parkin (4211, CST), and anti-β-actin (ab8226, Abcam).

SIRT1 = biological target: T2, SIRT1 (Homo sapiens, UniProt Q96EB6); assay: SPR binding to SIRT1
T2 sequence (Q96EB6 1-747): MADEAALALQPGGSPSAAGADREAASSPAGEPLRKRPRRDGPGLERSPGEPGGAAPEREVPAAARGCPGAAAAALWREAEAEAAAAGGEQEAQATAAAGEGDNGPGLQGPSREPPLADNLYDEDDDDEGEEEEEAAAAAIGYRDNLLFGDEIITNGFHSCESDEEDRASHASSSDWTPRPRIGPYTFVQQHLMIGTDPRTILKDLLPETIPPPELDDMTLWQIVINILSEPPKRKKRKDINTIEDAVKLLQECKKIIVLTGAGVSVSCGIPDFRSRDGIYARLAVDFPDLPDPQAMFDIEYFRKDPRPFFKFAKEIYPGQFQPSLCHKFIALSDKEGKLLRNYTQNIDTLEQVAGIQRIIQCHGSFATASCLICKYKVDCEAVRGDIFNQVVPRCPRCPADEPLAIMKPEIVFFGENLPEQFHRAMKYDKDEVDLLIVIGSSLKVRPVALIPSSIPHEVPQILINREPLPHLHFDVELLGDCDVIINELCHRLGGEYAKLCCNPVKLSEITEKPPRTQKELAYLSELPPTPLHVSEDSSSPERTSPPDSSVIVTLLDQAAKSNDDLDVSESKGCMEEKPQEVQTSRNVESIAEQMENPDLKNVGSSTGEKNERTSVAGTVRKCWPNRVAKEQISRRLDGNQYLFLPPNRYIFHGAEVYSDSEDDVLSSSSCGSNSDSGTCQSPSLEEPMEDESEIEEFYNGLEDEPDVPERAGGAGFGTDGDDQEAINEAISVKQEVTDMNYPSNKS
Procedure: (§1) The affinity of SKLB-11A for SIRT1, SIRT2, SIRT3, SIRT5, and SIRT6 was determined using a Reichert 4SPR system (Reichert Technologies, Depew, NY, USA). Proteins at 200 μg/mL were immobilized on a dextran-coated sensor chip (13206066) until reaching ≥12,000 response units (RUs). A dual-flow channel setup was used, reserving one channel for blank controls. SKLB-11A was introduced at varying concentrations for binding and subsequent dissociation kinetic analysis. Data acquisition was at 25 °C utilizing a PBST running buffer (pH 7.4). The equilibrium dissociation constant (K d) was computed from steady-state affinity measurements using TraceDrawer software.

SIRT3 = biological target: T3, SIRT3 (Homo sapiens, UniProt Q9NTG7); assay: SPR binding to immobilized SIRT3; settings: 25 °C, PBST pH 7.4
T3 construct: purchased Enzo Life Sciences BML-AK557-0001
T3 sequence (Q9NTG7 1-399): T1 sequence (Q9NTG7 1-399)
Procedure: as §1

SIRT2 = biological target: T4, SIRT2 (Homo sapiens, UniProt Q8IXJ6); assay: SPR binding to SIRT2
T4 sequence (Q8IXJ6 1-389): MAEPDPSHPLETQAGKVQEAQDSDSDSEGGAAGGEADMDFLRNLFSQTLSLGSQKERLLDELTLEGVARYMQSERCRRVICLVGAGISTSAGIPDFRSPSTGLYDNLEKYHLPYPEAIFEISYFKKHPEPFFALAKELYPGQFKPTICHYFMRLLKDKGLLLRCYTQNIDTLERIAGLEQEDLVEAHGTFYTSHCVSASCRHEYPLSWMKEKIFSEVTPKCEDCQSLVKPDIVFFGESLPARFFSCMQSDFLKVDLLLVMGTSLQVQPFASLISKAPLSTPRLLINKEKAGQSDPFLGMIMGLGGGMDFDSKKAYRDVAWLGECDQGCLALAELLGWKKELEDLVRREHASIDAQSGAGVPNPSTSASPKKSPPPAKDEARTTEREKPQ
Procedure: as §1

SIRT5 = biological target: T5, SIRT5 (Rattus norvegicus, UniProt Q68FX9); assay: CETSA of SIRT5 in H9c2 cells; format: cell-based
T5 construct: endogenous in cells; host or cells: H9c2
T5 sequence (Q68FX9 37-310): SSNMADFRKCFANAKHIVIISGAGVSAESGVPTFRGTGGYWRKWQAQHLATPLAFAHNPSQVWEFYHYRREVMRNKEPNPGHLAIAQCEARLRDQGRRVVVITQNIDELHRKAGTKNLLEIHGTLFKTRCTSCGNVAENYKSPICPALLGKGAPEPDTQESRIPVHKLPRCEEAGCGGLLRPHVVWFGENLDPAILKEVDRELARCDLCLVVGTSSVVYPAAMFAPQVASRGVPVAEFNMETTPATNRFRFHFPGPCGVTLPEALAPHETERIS

## COC(=O)c1c(N)n(Cc2ccc(F)cc2)c2nc3ccccc3nc12 [SKLB-11A, Methyl 2-amino-1-(4-fluorobenzyl)-1H-pyrrolo[2,3-b]quinoxaline-3-carboxylate]
hSirt3
  catalytic efficiency of SIRT3 deacetylation (MS assay): significantly increased the catalytic efficiency
[1]
  SIRT3 protein levels: did not alter SIRT3 protein levels
  deacetylation of MnSOD at K122 and K68: induced deacetylation at K122 and K68
SIRT1; SPR
  Kd: > 200 µM
SIRT1; SPR Kd ratio
  affinity for SIRT1 lower than its affinity for SIRT3: approximately 40 times
SIRT3
  Kd: 4.7 µM
SIRT2; SPR
  Kd: > 200 µM
SIRT2; SPR Kd ratio
  affinity for SIRT2 lower than its affinity for SIRT3: approximately 40 times
SIRT5
  thermal stability of SIRT5 (CETSA): little effect on the thermal stability
